{"source": "patent US20050197350A1", "about": "“Novel quinoline, tetrahydroquinazoline, and pyrimidine derivatives and methods of treatment related to the use thereof” (TAISHO PHARMACEUTICAL CO., LTD., priority 2003, published 2005)"}
{"system": "MCH receptors", "assay": "MCH receptor activity class (method not given)", "conditions": "not given"}
{"compound": "COc1cccc(C(=O)N[C@H]2CC[C@@H](Nc3cc(C)c4ccccc4n3)CC2)c1", "note": "[Example 2549, 3-methoxy-N-{cis-4-[(4-methylquinolin-2-yl)amino]cyclohexyl}benzamide]", "class": 1}
{"system": "MCH receptors", "assay": "MCH receptor activity class (method not given)", "conditions": "MCH receptor activity class 1-3 (percent of control at 10^-7 M or IC50)"}
{"compound": "CN(C)c1ccnc(N[C@H]2CC[C@@H](CNC(=O)Nc3c(Br)cc(F)cc3Br)CC2)n1", "note": "[compound 2444, N-(2,6-dibromo-4-fluorophenyl)-N′-[(cis-4-{[4-(dimethylamino)pyrimidin-2-yl]amino}cyclohexyl)methyl]urea]", "class": "1 (Class 1: The value of percent of control at 10^−7 M was less than 40% or the value of IC50 was less than 50 nM.)"}
{"compound": "CCCCc1ccc(NC(=S)N[C@H]2CC[C@@H](Nc3nccc(N(C)C)n3)CC2)c(C)c1", "note": "[compound 2358]", "class": "3 (Class 3 The value of percent of control at 10^−7 M was more than 60% or the value of IC50 was more than 200 nM.)"}
{"system": "MCH receptors", "assay": "MCH receptor activity class (method not given)", "conditions": "MCH receptor; class by percent of control at 10^-7 M or IC50"}
{"compound": "CN(C)c1cc(N[C@H]2CC[C@@H](NC(=O)c3csc4ccccc34)CC2)nc2ccccc12", "note": "[compound 91]", "class": "3 (Class 3 The value of percent of control at 10^−7 M was more than 60% or the value of IC50 was more than 200 nM.)"}
{"compound": "CC(C)c1ccc(NC(=S)N[C@H]2CC[C@@H](Nc3nc4c(c(N(C)C)n3)CCCC4)CC2)c(Br)c1", "note": "[compound 2060]", "class": "3 (Class 3 The value of percent of control at 10^−7 M was more than 60% or the value of IC50 was more than 200 nM.)"}
{"compound": "Cc1onc(-c2ccccc2Cl)c1C(=O)N[C@H]1CC[C@@H](Nc2cc(N(C)C)c3ccccc3n2)CC1", "note": "[compound 98]", "class": "1 (Class 1: The value of percent of control at 10^−7 M was less than 40% or the value of IC50 was less than 50 nM.)"}
{"compound": "Cc1onc(-c2c(F)cccc2Cl)c1C(=O)N[C@H]1CC[C@@H](Nc2cc(N(C)C)c3ccccc3n2)CC1", "note": "[compound 100, 3-(2-chloro-6-fluorophenyl)-N-(cis-4-{[4-(dimethylamino)quinolin-2-yl]amino}cyclohexyl)-5-methylisoxazole-4-carboxamide]", "class": "1 (Class 1: The value of percent of control at 10^−7 M was less than 40% or the value of IC50 was less than 50 nM.)"}
{"system": "MCH receptors", "assay": "MCH receptor activity class (method not given)", "conditions": "activity class 1-3: percent of control at 10^-7 M or IC50"}
{"compound": "CN(C)c1nc(N[C@H]2CC[C@@H](NC(=O)Nc3ccccc3C(C)(C)C)CC2)nc2c1CCCC2", "note": "[compound 1684]", "class": "3 (Class 3 The value of percent of control at 10^−7 M was more than 60% or the value of IC50 was more than 200 nM.)"}
{"compound": "COCCOC(=O)NC[C@H]1CC[C@@H](Nc2nccc(N(C)C)n2)CC1", "note": "[compound 1645]", "class": "3 (Class 3 The value of percent of control at 10^−7 M was more than 60% or the value of IC50 was more than 200 nM.)"}
{"system": "MCH receptors", "assay": "MCH receptor activity class (method not given)", "conditions": "activity class per percent of control at 10^-7 M or IC50"}
{"compound": "CCN(CC)c1ccc(CNC[C@H]2CC[C@@H](Nc3cc(N(C)C)c4ccccc4n3)CC2)cc1", "note": "[compound 1150]", "class": "3 (Class 3 The value of percent of control at 10^−7 M was more than 60% or the value of IC50 was more than 200 nM.)"}
{"compound": "CCOC(=O)c1[nH]c2cc(Cl)cc(Cl)c2c1CN[C@H]1CC[C@@H](Nc2cc(N(C)C)c3ccccc3n2)CC1", "note": "[compound 1115]", "class": "1 (Class 1: The value of percent of control at 10^−7 M was less than 40% or the value of IC50 was less than 50 nM.)"}
{"system": "MCH receptors", "assay": "MCH receptor activity class (method not given)", "conditions": "class 1-3 by percent of control at 10^-7 M or IC50"}
{"compound": "CCOc1ccccc1C(=O)N[C@H]1CC[C@@H](Nc2nc3c(c(N(C)C)n2)CCCC3)CC1", "note": "[compound 508]", "class": "3 (Class 3 The value of percent of control at 10^−7 M was more than 60% or the value of IC50 was more than 200 nM.)"}
{"system": "MCH receptors", "assay": "MCH receptor activity class (method not given)", "conditions": "class by percent of control at 10^-7 M or IC50"}
{"compound": "CN(C)c1cc(N[C@H]2CC[C@@H](NC(=O)NCc3ccc(Br)cc3)CC2)nc2ccccc12", "note": "[compound 2153]", "class": "3 (Class 3 The value of percent of control at 10^−7 M was more than 60% or the value of IC50 was more than 200 nM.)"}
{"compound": "Cc1onc(-c2c(Cl)cccc2Cl)c1C(=O)N[C@H]1CC[C@@H](Nc2nccc(N(C)C)n2)CC1", "note": "[compound 352, 3-(2,6-dichlorophenyl)-N-(cis-4-{[4-(dimethylamino)pyrimidin-2-yl]amino}cyclohexyl)-5-methylisoxazole-4-carboxamide]", "class": "1 (Class 1: The value of percent of control at 10^−7 M was less than 40% or the value of IC50 was less than 50 nM.)"}
{"compound": "Cc1cc(Br)cc(C)c1NC(=S)N[C@H]1CC[C@@H](Nc2cc(N(C)C)c3ccccc3n2)CC1", "note": "[compound 2283, N-(4-bromo-2,6-dimethylphenyl)-N′-(cis-4-{[4-(dimethylamino)quinolin-2-yl]amino}cyclohexyl)thiourea]", "class": "1 (Class 1: The value of percent of control at 10^−7 M was less than 40% or the value of IC50 was less than 50 nM.)"}
{"compound": "COc1ccc2[nH]cc(CN[C@H]3CC[C@@H](Nc4nc5c(c(N(C)C)n4)CCCC5)CC3)c2c1", "note": "[compound 1331]", "class": "1 (Class 1: The value of percent of control at 10^−7 M was less than 40% or the value of IC50 was less than 50 nM.)"}
{"compound": "CN(C)c1cc(N[C@H]2CC[C@@H](CNC(=O)Cc3csc4ccccc34)CC2)nc2ccccc12", "note": "[compound 811]", "class": "3 (Class 3 The value of percent of control at 10^−7 M was more than 60% or the value of IC50 was more than 200 nM.)"}
{"compound": "CN(C)c1cc(N[C@H]2CC[C@@H](CNCc3cc(Cl)cc(Br)c3O)CC2)nc2ccccc12", "note": "[compound 1162]", "class": "3 (Class 3 The value of percent of control at 10^−7 M was more than 60% or the value of IC50 was more than 200 nM.)"}
{"compound": "CN(C)c1ccnc(N[C@H]2CC[C@@H](NC(=O)Nc3c(F)cc(Br)cc3Br)CC2)n1", "note": "[compound 2191, N-(2,4-dibromo-6-fluorophenyl)-N′-(cis-4-{[4-(dimethylamino)pyrimidin-2-yl]amino}cyclohexyl)urea]", "class": "1 (Class 1: The value of percent of control at 10^−7 M was less than 40% or the value of IC50 was less than 50 nM.)"}
{"compound": "CN(C)c1nc(N[C@H]2CC[C@@H](CNCCCCCCCCc3ccccc3)CC2)nc2c1CCCC2", "note": "[compound 1502]", "class": "3 (Class 3 The value of percent of control at 10^−7 M was more than 60% or the value of IC50 was more than 200 nM.)"}
{"compound": "Cc1cc(C(=O)NC[C@H]2CC[C@@H](Nc3nc4c(c(N(C)C)n3)CCCC4)CC2)c(C)o1", "note": "[compound 633]", "class": "3 (Class 3 The value of percent of control at 10^−7 M was more than 60% or the value of IC50 was more than 200 nM.)"}
{"compound": "CCOC(=O)c1ccccc1NC(=O)N[C@H]1CC[C@@H](Nc2nc3c(c(N(C)C)n2)CCCC3)CC1", "note": "[compound 1857]", "class": "3 (Class 3 The value of percent of control at 10^−7 M was more than 60% or the value of IC50 was more than 200 nM.)"}
{"compound": "CN(C)c1nc(N[C@H]2CC[C@@H](CNC(=O)c3ccc(F)cc3Cl)CC2)nc2c1CCCC2", "note": "[compound 623]", "class": "3 (Class 3 The value of percent of control at 10^−7 M was more than 60% or the value of IC50 was more than 200 nM.)"}
{"compound": "CN(C)c1nc(N[C@H]2CC[C@@H](NC(=O)NC3CCCCC3)CC2)nc2c1CCCC2", "note": "[compound 1816]", "class": "3 (Class 3 The value of percent of control at 10^−7 M was more than 60% or the value of IC50 was more than 200 nM.)"}
{"compound": "CN(C)c1ccnc(N[C@H]2CC[C@@H](NC(=O)c3csc(-c4ccc5c(c4)CCO5)n3)CC2)n1", "note": "[compound 359, 2-(2,3-dihydro-1-benzofuran-5-yl)-N-(cis-4-{[4-(dimethylamino)pyrimidin-2-yl]amino}cyclohexyl)-1,3-thiazole-4-carboxamide]", "class": "1 (Class 1: The value of percent of control at 10^−7 M was less than 40% or the value of IC50 was less than 50 nM.)"}
{"compound": "CN(C)c1ccnc(N[C@H]2CC[C@@H](NC(=O)/C=C/c3ccccc3[N+](=O)[O-])CC2)n1", "note": "[compound 866]", "class": "3 (Class 3 The value of percent of control at 10^−7 M was more than 60% or the value of IC50 was more than 200 nM.)"}
{"compound": "CN(C)c1nc(N[C@H]2CC[C@@H](NC(=O)Nc3ccc(Br)cc3Cl)CC2)nc2c1CCCC2", "note": "[compound 1883, N-(4-bromo-2-chlorophenyl)-N′-(cis-4-{[4-(dimethylamino)-5,6,7,8-tetrahydroquinazolin-2-yl]amino}cyclohexyl)urea]", "class": "2 (Class 2: The value of percent of control at 10^−7 M was from 40% to 60% or the value of IC′50 was from 50 nM to 200 nM.)"}
{"compound": "CN(C)c1ccnc(N[C@H]2CC[C@@H](CNCc3c[nH]c4ccc(Br)cc34)CC2)n1", "note": "[compound 1251]", "class": "1 (Class 1: The value of percent of control at 10^−7 M was less than 40% or the value of IC50 was less than 50 nM.)"}
{"compound": "CN(C)c1cc(N[C@H]2CC[C@@H](NC(=O)/C=C/c3cccc([N+](=O)[O-])c3)CC2)nc2ccccc12", "note": "[compound 683]", "class": "2 (Class 2: The value of percent of control at 10^−7 M was from 40% to 60% or the value of IC′50 was from 50 nM to 200 nM.)"}
{"compound": "CN(C)c1ccnc(N[C@H]2CC[C@@H](NC(=O)Nc3ccccc3[N+](=O)[O-])CC2)n1", "note": "[compound 2237]", "class": "3 (Class 3 The value of percent of control at 10^−7 M was more than 60% or the value of IC50 was more than 200 nM.)"}
{"system": "MCH receptors", "assay": "MCH receptor activity class (method not given)", "conditions": "class by percent of control at 10^−7 M or IC50"}
{"compound": "COc1ccc(Oc2ncccc2C(=O)N[C@H]2CC[C@@H](Nc3ncc(C)c(N(C)C)n3)CC2)cc1", "note": "[compound 2888, N-(cis-4-{[4-(dimethylamino)-5-methylpyrimidin-2-yl]amino}cyclohexyl)-2-(4-methoxyphenoxy)nicotinamide]", "class": "1 (Class 1: The value of percent of control at 10^−7 M was less than 40% or the value of IC50 was less than 50 nM.)"}
{"compound": "Cc1cc(C(=O)N[C@H]2CC[C@@H](Nc3ncc(C)c(N(C)C)n3)CC2)ccc1F", "note": "[compound 2923, N-(cis-4-{[4-(dimethylamino)-5-methylpyrimidin-2-yl]amino}cyclohexyl)-4-fluoro-3-methylbenzamide]", "class": "1 (Class 1: The value of percent of control at 10^−7 M was less than 40% or the value of IC50 was less than 50 nM.)"}
{"compound": "Cc1cnc(NC[C@H]2CC[C@@H](NC(=O)c3cccc(OC(F)(F)F)c3)CC2)nc1N(C)C", "note": "[compound 2721]", "class": "3 (Class 3 The value of percent of control at 10^−7 M was more than 60% or the value of IC50 was more than 200 nM.)"}
{"compound": "Cc1nc(N[C@H]2CC[C@@H](NC(=O)c3ccc(F)c(F)c3)CC2)nc(N(C)C)c1C", "note": "[compound 2864]", "class": "1 (Class 1: The value of percent of control at 10^−7 M was less than 40% or the value of IC50 was less than 50 nM.)"}
{"compound": "COc1cccc([C@@H](C)NC(=O)[C@H]2CC[C@@H](Nc3ncc(C)c(N(C)C)n3)CC2)c1", "note": "[compound 2775, cis-4-{[4-(dimethylamino)-5-methylpyrimidin-2-yl]amino}-N-[(1R)-1-(3-methoxyphenyl)ethyl]cyclohexanecarboxamide]", "class": "1 (Class 1: The value of percent of control at 10^−7 M was less than 40% or the value of IC50 was less than 50 nM.)"}
